Experiment: Relaxivity of dialyzed liposomal Gd(BME-DTTA)
Type: physicochemical
Settings: dialyzed against saline pH 7.4 with HEPES and Chelex-100
Procedure: In this comparative example, the gadolinium complex of N^3,N^6 -bis(2'-myristoyloxyethyl)-1,8-dioxo-triethylenetetraamine-N,N,N',N'-tetraacetic acid [Gd(BME-DTTA)] was prepared and used for cardiac tissue imaging. Specifically, Gd(BME-DTTA) was synthesized and incorporated into liposomes using the procedure described in the Elgavish et al. article entitled "Fatty-acyl iminopolycarboxylates; lipophilic bifunctional contrast agents for NMR imaging", Magn. Reson. Med. 1991; Vol 22; pp. 57-67.
The liposomal Gd(BME-DTTA) was dialyzed at 4° C. for 24 hours against a saline solution (pH 7.4) that contained 0.9 weight % NaCl, 20 mmol/L HEPES, and 0.5 weight % Chelex-100 to remove any weakly bound Gd ions. […] (mmol/L)^-1.

For “gadolinium complex of N^3,N^6 -bis(2'-myristoyloxyethyl)-1,8-dioxo-triethylenetetraamine-N,N,N',N'-tetraacetic acid [Gd(BME-DTTA)]”, the relaxivity was 27.1±0.3 s^-1. (mmol/L)^-1.

From patent US5804164A, “Water-soluble lipophilic contrast agents” (Research Corporation Technologies, Inc., priority 1996, dated 1998)
